Measured values from publication PMC9404985, “Development of Dicationic Bisguanidine-Arylfuran Derivatives as Potent Agents against Gram-Negative Bacteria” (Antibiotics, 2022).

Tests used:
[1] = test system: Acinetobacter baumannii CCUG # 57035; test: MIC of established antibiotics, micro-broth dilution; conditions: CCUG57035, read-out: MIC Acinetobacter baumannii CCUG 57035
[2] = test system: Acinetobacter baumannii CCUG # 57250; test: as above; conditions: CCUG57250, read-out: MIC Acinetobacter baumannii CCUG 57250
[3] = test system: Escherichia coli CCUG # 17620; test: as above; conditions: CCUG17620, read-out: MIC Escherichia coli CCUG 17620
[4] = test system: Pseudomonas aeruginosa CCUG # 59347; test: as above; conditions: CCUG59347, read-out: MIC Pseudomonas aeruginosa CCUG 59347
[5] = test system: Enterobacter hormaechei CCUG # 58962; test: as above; conditions: CCUG58962, read-out: MIC Enterobacter hormaechei CCUG 58962
[6] = test system: Pseudomonas aeruginosa CCUG # 17619; test: as above; conditions: CCUG17619, read-out: MIC Pseudomonas aeruginosa CCUG 17619
[7] = test system: Klebsiella pneumoniae CCUG # 58547; test: as above; conditions: CCUG58547, read-out: MIC Klebsiella pneumoniae CCUG 58547
[8] = test system: Klebsiella pneumoniae CCUG # 225T; test: as above; conditions: read-out: MIC Klebsiella pneumoniae CCUG 225T
[9] = test system: Escherichia coli CCUG # 67180; test: as above; conditions: CCUG67180, read-out: MIC Escherichia coli CCUG 67180
[10] = test system: Enterobacter cloacae CCUG # 6323T; test: as above; conditions: read-out: MIC Enterobacter cloacae CCUG 6323T
[11] = test system: A. baumannii (CCUG #57250); test: Antibacterial activity against isolates (Omnilog, Biolog redox dye); assay type: cell-based, Acinetobacter baumannii; conditions: Acinetobacter baumannii, ca-MH broth, 24 h, 37 °C
Experimental: (§1) The antibacterial activities of eight compounds (1, 3, 4, 6, 8, 10, 16, and 17) were tested against 10 different isolates of Gram-negative bacteria from human and other sources, two E. coli (CCUG #67180 and CCUG #17620/ATCC #25922, control strain), two K. pneumoniae (CCUG #58547 and CCUG #225T), two P. aeruginosa (CCUG #17619 and CCUG #59347), two A. baumannii (CCUG #57035 and CCUG #57250), E. cloacae (CCUG #6323T), and E. hormaechei (CCUG #58962) in a 96-well plate format. The compounds to test were 3-fold diluted in six steps in cation-adjusted Mueller-Hinton (ca-MH) broth to final concentrations spanning from 30 to 0.12 µM, i.e., a 1667–416,667 times dilution from the 50 mM stocks. Bacterial mass from the ten isolates grown overnight on horse blood or Mueller–Hinton agar plates was suspended in ca-MH and adjusted to a final inoculum cell density of ~5 × 10^5 CFU/mL. For all assays, Biolog redox dye A diluted 100× from the stock solution was used for measurements of all ten isolates (up to a total volume of 120 µL per well). All plates included one well per isolate with only inoculum and dye but no test compound (i.e., positive control) and one well per isolate with inoculum, dye and DMSO diluted 1667×, corresponding to the DMSO concentration in the wells with the highest concentration of test compound. All measurements were performed using the Omnilog microplate reader (Biolog, Hayward, CA, USA) where the 96-well plates were read at 15 min intervals for a total of 24 h at 37 °C.

[12] = test system: P. aeruginosa (CCUG #59347); test: as above; assay type: cell-based, Pseudomonas aeruginosa; conditions: Pseudomonas aeruginosa, CCUG59347; ca-MH broth, 24 h, 37 °C
Experimental: as §1, with “The compounds to test were 3-fold diluted in six steps in cation-adjusted Mueller-Hinton (ca-MH) broth to final concentrations spanning from 30 to 0.12 µM, i.e., a 1667–416,667 times dilution from the 50 mM stocks.” left out

[13] = test system: E. hormaechei (CCUG #58962); test: as above; assay type: cell-based, Enterobacter hormaechei; conditions: Enterobacter hormaechei, CCUG58962; ca-MH broth, 24 h, 37 °C
Experimental: as §1, with “The compounds to test were 3-fold diluted in six steps in cation-adjusted Mueller-Hinton (ca-MH) broth to final concentrations spanning from 30 to 0.12 µM, i.e., a 1667–416,667 times dilution from the 50 mM stocks.” left out

E. cloacae (CCUG #6323T) = test: as above; assay type: cell-based, Enterobacter cloacae; conditions: Enterobacter cloacae; ca-MH broth, 24 h, 37 °C
Experimental: as §1

[14] = test system: K. pneumoniae (CCUG #58547); test: as above; assay type: cell-based, Klebsiella pneumoniae; conditions: Klebsiella pneumoniae, CCUG58547; ca-MH broth, 24 h, 37 °C
Experimental: as §1, with “The compounds to test were 3-fold diluted in six steps in cation-adjusted Mueller-Hinton (ca-MH) broth to final concentrations spanning from 30 to 0.12 µM, i.e., a 1667–416,667 times dilution from the 50 mM stocks.” left out

[15] = test system: E. coli (CCUG #17620/ ATCC #25922); test: as above; assay type: cell-based, Escherichia coli; conditions: Escherichia coli; ca-MH broth, 24 h, 37 °C
Experimental: as §1

E. coli (CCUG #67180) = test: as above; assay type: cell-based, Escherichia coli; conditions: Escherichia coli, ca-MH broth, 24 h, 37 °C
Experimental: as §1

[16] = test system: K. pneumoniae (CCUG #225T); test: as above; assay type: cell-based, Klebsiella pneumoniae; conditions: Klebsiella pneumoniae; ca-MH broth, 24 h, 37 °C
Experimental: as §1

[17] = test system: A. baumannii (CCUG #57035); test: as above; assay type: cell-based, Acinetobacter baumannii; conditions: Acinetobacter baumannii, CCUG57035; ca-MH broth, 24 h, 37 °C
Experimental: as §1, with “The compounds to test were 3-fold diluted in six steps in cation-adjusted Mueller-Hinton (ca-MH) broth to final concentrations spanning from 30 to 0.12 µM, i.e., a 1667–416,667 times dilution from the 50 mM stocks.” left out

[18] = test system: P. aeruginosa (CCUG #17619); test: as above; assay type: cell-based, Pseudomonas aeruginosa; conditions: Pseudomonas aeruginosa, CCUG17619; ca-MH broth, 24 h, 37 °C
Experimental: as §1

Row | MIC [1] | MIC [2] | MIC [3] | MIC [4] | MIC [5] | MIC [6] | MIC [7] | MIC [8] | MIC [9] | MIC [10] | Structure (SMILES) | also measured
1 | 175 µM | 175 µM | 11 to 44 µM | 350 µM | 350 µM | 350 µM | 350 µM | 350 µM | 350 µM | 350 µM | CC1(C)S[C@@H]2[C@H](NC(=O)[C@H](N)c3ccc(O)cc3)C(=O)N2[C@H]1C(=O)O [Amoxicillin] | 
2 | > 560 µM | 36 µM | 0.25 to 0.5 µM | > 560 µM | 280 µM | 36 µM | 560 µM | 0.25 µM | 280 µM | 9 to 36 µM | CO/N=C(\C(=O)N[C@@H]1C(=O)N2C(C(=O)O)=C(COC(C)=O)CS[C@H]12)c1csc(N)n1 [CTX, Cefotaxime, reference compound] | EC90 ([11]; CCUG57250, 24 h): 48 µM; EC50 ([11]; CCUG57250): 23.4 µM; EC50 [12]: 1510 µM; EC90 [12]: 1680 µM; EC50 [13]: 78.4 µM; EC90 [13]: 158 µM; EC50 (E. cloacae (CCUG #6323T)): 2.1 µM; EC90 (E. cloacae (CCUG #6323T)): 4.5 µM; EC50 [14]: 324 µM; EC90 [14]: 478 µM; EC50 [15]: 0.2 µM; EC90 [15]: 0.3 µM; EC90 (E. coli (CCUG #67180); CCUG67180, 24 h): 183 µM; EC50 (E. coli (CCUG #67180); CCUG67180): 161 µM; EC50 [16]: 0.2 µM; EC90 [16]: 0.3 µM; EC50 [17]: 430 µM; EC90 [17]: 681 µM; EC50 [18]: 13 µM; EC90 [18]: 18.4 µM
3 | 335 µM | 40 µM | 0.16 µM | 335 µM | 0.3 µM | 2.6 to 5.2 µM | > 80 µM | 0.16 to 0.32 µM | 10 to 20 µM | 0.6 to 1.2 µM | C[C@@H](O)[C@H]1C(=O)N2C(C(=O)O)=C(S[C@@H]3CN[C@H](C(=O)N(C)C)C3)[C@H](C)[C@H]12 [Meropenem] | 
